In patent EP0835871B1, “Benzo [b] thiophene compounds, intermediates, formulations, and methods” (ELI LILLY AND COMPANY, priority 1996, dated 1998):

Key:
[1] = system: female Sprague Dawley rats; assay: Uterine wet weight in the post-menopausal (ovariectomized rat) model, 4 days of oral dosing; type: in vivo; conditions: % increase versus the ovariectomized controls, * p<0.05
Method: (§1) In the examples illustrating the methods, a post-menopausal model was used in which effects of different treatments upon circulating lipids were determined.
(§2) Seventy-five day old female Sprague Dawley rats (weight range of 200 to 225g) are obtained from Charles River Laboratories (Portage, MI). The animals are either bilaterally ovariectomized (OVX) or exposed to a Sham surgical procedure at Charles River Laboratories, and then shipped after one week. Upon arrival, they are housed in metal hanging cages in groups of 3 or 4 per cage and have ad libitum access to food (calcium content approximately 0.5%) and water for one week. Room temperature is maintained at 22.2° ± 1.7° C with a minimum relative humidity of 40%. The photoperiod in the room is 12 hours light and 12 hours dark.
(§3) Dosing Regimen Tissue Collection. After a one week acclimation period (therefore, two weeks post-OVX) daily dosing with test compound is initiated. 17α-ethynyl estradiol or the test compound are given orally, unless otherwise stated, as a suspension in 1% carboxymethylcellulose or dissolved in 20% cyclodextrin. Animals are dosed daily for 4 days. Following the dosing regimen, animals are weighed and anesthetized with a ketamine: Xylazine (2:1, V:V) mixture and a blood sample is collected by cardiac puncture. The animals are then sacrificed by asphyxiation with CO2, the uterus is removed through a midline incision, and a wet uterine weight is determined.

Serum cholesterol = Serum cholesterol analysis in ovariectomized rats; type: in vivo; conditions: decrease versus ovariectomized controls, * p<0.05
Method: as §1, §2, §3
Cholesterol Analysis. Blood samples are allowed to clot at ambient temperature for 2 hours, and serum is obtained following centrifugation for 10 minutes at 3000 rpm. Serum cholesterol is determined using a Boehringer Mannheim Diagnostics high performance cholesterol assay. Briefly, the cholesterol is oxidized to cholest-4-en-3-one and hydrogen peroxide. The hydrogen peroxide is then reacted with phenol and 4-aminophenazone in the presence of peroxidase to produce a p-quinone imine dye, which is read spectrophotemetrically at 500 nm. Cholesterol concentration is then calculated against a standard curve.

[2] = system: Uterine Eosinophil Peroxidase (EPO); assay: Uterine Eosinophil Peroxidase (EPO) Assay in ovariectomized rats; type: in vivo; set-up: unit not given here; conditions: Vmaximum, * p<0.05
Description: as §2, §3
Uterine Eosinophil Peroxidase (EPO) Assay. Uteri are kept at 4° C until time of enzymatic analysis. The uteri are then homogenized in 50 volumes of 50 mM Tris buffer (pH - 8.0) containing 0.005% Triton X-100. Upon addition of 0.01% hydrogen peroxide and 10 mM o-phenylenediamine (final concentrations) in Tris buffer, increase in absorbance is monitored for one minute at 450 nm. The presence of eosonophils in the uterus is an indication of estrogenic activity of a compound. The maximal velocity of a 15 second interval is determined over the initial, linear portion of the reaction curve.

[3] = system: MCF-7 breast adenocarcinoma cells (ATCC HTB 22); assay: MCF-7 Proliferation Assay (tritiated thymidine uptake); type: cell-based; conditions: MCF-7 cells, 48 hours with drug, tritiated thymidine pulse 4 hours
Method: MCF-7 Proliferation Assay
MCF-7 breast adenocarcinoma cells (ATCC HTB 22) were maintained in MEM (minimal essential medium, phenol red-free, Sigma, St. Louis, MO) supplemented with 10% fetal bovine serum (FBS) (V/V), L-glutamine (2 mM), sodium pyruvate (1 mM), HEPES {(N-[2-hydroxyethyl]piperazine-N'-[2-ethanesulfonic acid] 10 mM}, non-essential amino acids and bovine insulin (1 ug/mL) (maintenance medium). Ten days prior to assay, MCF-7 cells were switched to maintenance medium supplemented with 10% dextran coated charcoal stripped fetal bovine serum (DCC-FBS) assay medium) in place of 10% FBS to deplete internal stores of steroids. MCF-7 cells were removed from maintenance flasks using cell dissociation medium [Ca++/Mg++ free HBSS (phenol red-free) supplemented with 10 mM HEPES and 2 mM EDTA]. Cells were washed twice with assay medium and adjusted to 80,000 cells/mL. Approximately […] (8,000 cells) were added to flat-bottom microculture wells (Costar 3596) and incubated at 37° C in a 5% CO2 humidified incubator for 48 hours to allow for cell adherence and equilibration after transfer. Serial dilutions of drugs or DMSO as a diluent control were prepared in assay medium and […] to triplicate microcultures followed by […] assay medium for a final volume of […]. After an additional 48 hours at 37° C in a 5% CO2 humidified incubator, microcultures were pulsed with tritiated thymidine (1 µCi/well) for 4 hours. Cultures were terminated by freezing at -70° C for 24 hours followed by thawing and harvesting of microcultures using a Skatron Semiautomatic Cell Harvester. Samples were counted by liquid scintillation using a Wallac BetaPlace β counter. The compounds of formula I are active and potent in inhibiting the tumor cell growth, see: Table 2.

Uterine Wt. (% Inc.) ([1]; dose printed as 0. mg/kg PO) | Uterine EPO (Vmax) ([2]; dose printed as 0. mg/kg PO) | Uterine Wt. (% Inc.) ([1]; 0.1 mg/kg PO) | Uterine Wt. (% Inc.) ([1]; 1 mg/kg PO) | Uterine Wt. (% Inc.) ([1]; 10 mg/kg PO) | Uterine EPO (Vmax) ([2]; 0.1 mg/kg PO) | Uterine EPO (Vmax) ([2]; 1 mg/kg PO) | Uterine EPO (Vmax) ([2]; 10 mg/kg PO) | IC50 ([3]; Homo sapiens, MCF7) | IC50 [3] | Structure (SMILES) | Serum Cholesterol (% Dec.) (Serum cholesterol; dose printed as 0. mg/kg PO) | Serum Cholesterol (% Dec.) (Serum cholesterol; 0.1 mg/kg PO) | Serum Cholesterol (% Dec.) (Serum cholesterol; 1 mg/kg PO) | Serum Cholesterol (% Dec.) (Serum cholesterol; 10 mg/kg PO)
171.2* % | 142.4* |  |  |  |  |  |  |  |  | C#C[C@]1(O)CC[C@H]2[C@@H]3CCc4cc(O)ccc4[C@H]3CC[C@@]21C [EE2, 17-α-Ethynyl-estradiol, reference compound] | 85.1* % |  |  | 
 |  | 46.9* % | 19.1% | 45.2* % | 4.5 | 4.8 | 7.5 | 40 nM |  | COC(=O)c1ccc2c(C(=O)c3ccc(OCCN4CCCCC4)cc3)c(-c3ccc(O)cc3)sc2c1.Cl [Example 1, [2-(4-Hydroxyphenyl)-6-methoxycarbonylbenzo[b]thien-3-yl][4-[2-(1-piperidinyl)ethoxy]phenyl]methanone Hydrochloride] |  | -8.6% | 42.5* % | 56.1* %
 |  | 11.8% | 21.7% | 47.1* % | 3.3 | 3.3 | 4.8 |  | 45 nM | CC(C)COC(=O)c1ccc2c(C(=O)c3ccc(OCCN4CCCCC4)cc3)c(-c3ccc(O)cc3)sc2c1 [Example 3] |  | -2.4% | 8.7% | 58.0* %
 |  | 18.8% | 27.2% | 29.6* % | 3.3 | 3.0 | 3.6 |  |  | Cl.O=C(O)c1ccc2c(C(=O)c3ccc(OCCN4CCCCC4)cc3)c(-c3ccc(O)cc3)sc2c1 [Example 4, [2-(4-Hydroxyphenyl)-6-carboxybenzo[b]thien-3-yl][4-[2-(1-piperidinyl)ethoxy]phenyl]methanone Hydrochloride] |  | 0.6% | 10.4% | 44.9* %
 |  | 18.8% | 51.8* % | 69.4* % | 1.2 | 2.1 | 5.4 | 60 nM |  | CC(=O)c1ccc2c(C(=O)c3ccc(OCCN4CCCCC4)cc3)c(-c3ccc(O)cc3)sc2c1 [Example 5, [2-(4-Hydroxyphenyl)-6-acetylbenzo[b]thien-3-yl][4-[2-(1-piperidinyl)ethoxy]phenyl]methanone] |  | -6.3% | 20.4% | 45.4* %
 |  | 14.3% | 27.8% | 22.5% | 3.9 | 4.8 | 4.8 | 20 nM |  | C#Cc1ccc2c(C(=O)c3ccc(OCCN4CCCCC4)cc3)c(-c3ccc(O)cc3)sc2c1 [Example 6, [2-(4-Hydroxyphenyl)-6-ethynylbenzo[b]thien-3-yl][4-[2-(1-piperidinyl)ethoxy]phenyl]methanone] |  | 39.4* % | 58.7* % | 65.8* %

Structure (SMILES) | Uterine Wt. (% Inc.) ([1]; dose printed as 0. mg/kg PO) | Uterine EPO (Vmax) ([2]; dose printed as 0. mg/kg PO) | Uterine Wt. (% Inc.) ([1]; 0.1 mg/kg PO) | Uterine Wt. (% Inc.) ([1]; 1 mg/kg PO) | Uterine Wt. (% Inc.) ([1]; 10 mg/kg PO) | Uterine EPO (Vmax) ([2]; 0.1 mg/kg PO) | Uterine EPO (Vmax) ([2]; 1 mg/kg PO) | Uterine EPO (Vmax) ([2]; 10 mg/kg PO) | IC50 ([3]; Homo sapiens, MCF7) | IC50 [3] | Serum Cholesterol (% Dec.) (Serum cholesterol; dose printed as 0. mg/kg PO) | Serum Cholesterol (% Dec.) (Serum cholesterol; 0.1 mg/kg PO) | Serum Cholesterol (% Dec.) (Serum cholesterol; 1 mg/kg PO) | Serum Cholesterol (% Dec.) (Serum cholesterol; 10 mg/kg PO)
CCCCOC(=O)c1ccc2c(C(=O)c3ccc(OCCN4CCCCC4)cc3)c(-c3ccc(O)cc3)sc2c1 [Example 2, [2-(4-Hydroxyphenyl)-6-n-butoxycarbonylbenzo[b]thien-3-yl][4-[2-(1-piperidinyl)ethoxy]phenyl]methanone] |  |  | 19.4% | 16.8% | 52.5* % | 2.4 | 0.0 | 4.8 | 45 nM |  |  | -1.2% | 26.7% | 55.6* %
